Reference: ChEMBL document CHEMBL4130462, “Natural isoflavone biochanin A as a template for the design of new and potent 3-phenylquinolone efflux inhibitors against Mycobacterium avium” (Eur J Med Chem, 2017)
Values after ≈ are worked out from the molar mass of the structure shown.

How the values were obtained:
Mycobacterium avium [1] = conditions: isolate MAV1
Description: Inhibition of multidrug resistance efflux pump in Mycobacterium avium isolate MAV1 assessed as potentiation of ofloxacin-induced antibacterial activity by measuring ofloxacin MIC at 1/4 MIC incubated for 3 days by MTT assay (Rvb = 4 ug/ml)

Mycobacterium avium [2] = conditions: in vivo, 72 h
Description: Antimycobacterial activity against Mycobacterium avium 104 mc'2 3 assessed as reduction in bacterial viability incubated for 3 days by MTT assay

Mycobacterium avium [3] = conditions: 104
[4] = Safety index, ratio of MTC for test compound to MTC for chlorpromazine for cytotoxicity in human monocyte-derived macrophages; format: cell-based, Macrophage cell line
Mycobacterium avium [5] = conditions: isolate MAV3
[6] = tested on: Mycobacterium avium subsp. avium ATCC 25291
Mycobacterium avium [7] = conditions: isolate MAV4
Description: Inhibition of multidrug resistance efflux pump in Mycobacterium avium isolate MAV4 assessed as potentiation of ethidium bromide-induced antibacterial activity by measuring ethidium bromide MIC at 1/4 MIC incubated for 3 days by MTT assay

Mycobacterium avium [8] = conditions: 104 mc'2 4
Mycobacterium avium [9] = conditions: isolate MAV4; remark: listed apart in the source
Mycobacterium avium [10] = conditions: 104; remark: listed apart in the source
Mycobacterium avium [11] = conditions: isolate MAV2
Description: Inhibition of multidrug resistance efflux pump in Mycobacterium avium isolate MAV2 assessed as potentiation of ofloxacin-induced antibacterial activity by measuring ofloxacin MIC at 1/2 MIC incubated for 3 days by MTT assay

Mycobacterium avium [12] = conditions: isolate MAV2; remark: listed apart in the source
[13] = tested on: Mycobacterium avium subsp. avium ATCC 25291; remark: listed apart in the source
Description: Inhibition of multidrug resistance efflux pump in Mycobacterium avium ATCC 25291 assessed as potentiation of ethidium bromide-induced antibacterial activity by measuring ethidium bromide MIC at 1/2 MIC incubated for 3 days by MTT assay (Rvb = 50 ug/ml)

Mycobacterium avium [14] = conditions: isolate MAV4; remark: listed apart in the source
Mycobacterium avium [15] = conditions: isolate MAV1; remark: listed apart in the source
[16] = tested on: Mycobacterium avium subsp. avium ATCC 25291; remark: listed apart in the source
Description: Inhibition of multidrug resistance efflux pump in Mycobacterium avium ATCC 25291 assessed as potentiation of ethidium bromide-induced antibacterial activity by measuring ethidium bromide MIC at 1/4 MIC incubated for 3 days by MTT assay

Mycobacterium avium [17] = conditions: 104 mc'2 4; remark: listed apart in the source
Mycobacterium avium [18] = conditions: 104 mc'2 3
Mycobacterium avium [19] = conditions: isolate MAV1; remark: listed apart in the source
Description: Inhibition of multidrug resistance efflux pump in Mycobacterium avium isolate MAV1 assessed as potentiation of ofloxacin-induced antibacterial activity by measuring ofloxacin MIC at 1/2 MIC incubated for 3 days by MTT assay (Rvb = 4 ug/ml)

Mycobacterium avium [20] = conditions: isolate MAV1; remark: listed apart in the source
Mycobacterium avium [21] = conditions: 104 mc'2 3; remark: listed apart in the source
[22] = Safety index, ratio of CC50 for test compound to CC50 for thioridazine for cytotoxicity in human monocyte-derived macrophages; format: cell-based, Macrophage cell line
Mycobacterium avium [23] = conditions: isolate MAV1; remark: listed apart in the source
Mycobacterium avium [24] = conditions: isolate MAV3; remark: listed apart in the source
Mycobacterium avium [25] = conditions: isolate MAV3; remark: listed apart in the source
Mycobacterium avium [26] = conditions: isolate MAV1; remark: listed apart in the source
Mycobacterium avium [27] = assay: Antimycobacterial activity against Mycobacterium avium isolate MAV3 assessed as reduction in bacterial viability incubated for 3 days by MTT assay; format: organism-based; conditions: 72 h
Mycobacterium avium [28] = conditions: 104; remark: listed apart in the source
[29] = tested on: Mycobacterium avium subsp. avium ATCC 25291; remark: listed apart in the source
Mycobacterium avium [30] = conditions: isolate MAV3; remark: listed apart in the source
Mycobacterium avium [31] = conditions: 104 mc'2 4; remark: listed apart in the source
Mycobacterium avium [32] = conditions: 104 mc'2 3; remark: listed apart in the source
Mycobacterium avium [33] = conditions: isolate MAV1; remark: listed apart in the source
[34] = Cytotoxicity in human monocyte-derived macrophages assessed as reduction in cell viability incubated for 3 days by alamar blue dye based assay; set-up: species or system Macrophage cell line
Mycobacterium avium [35] = conditions: 104; remark: listed apart in the source
Mycobacterium avium [36] = conditions: isolate MAV4; remark: listed apart in the source
Mycobacterium avium [37] = conditions: 104; remark: listed apart in the source
Description: Inhibition of multidrug resistance efflux pump in Mycobacterium avium 104 assessed as potentiation of clarithromycin -induced antibacterial activity by measuring clarithromycin MIC at 1/2 MIC incubated for 3 days by MTT assay

Mycobacterium avium [38] = conditions: isolate MAV2; remark: listed apart in the source
[39] = Safety index, ratio of CC50 for test compound to CC50 for chlorpromazine for cytotoxicity in human monocyte-derived macrophages; format: cell-based, Macrophage cell line
Mycobacterium avium [40] = conditions: isolate MAV4; remark: listed apart in the source
Mycobacterium avium [41] = conditions: 104 mc'2 4; remark: listed apart in the source
[42] = tested on: Mycobacterium avium subsp. avium ATCC 25291; remark: listed apart in the source
Mycobacterium avium [43] = assay: Antimycobacterial activity against Mycobacterium avium isolate MAV4 assessed as reduction in bacterial viability incubated for 3 days by MTT assay; format: organism-based; conditions: 72 h
Mycobacterium avium [44] = conditions: 104; remark: listed apart in the source
Mycobacterium avium [45] = conditions: isolate MAV3; remark: listed apart in the source
Mycobacterium avium [46] = conditions: isolate MAV2; remark: listed apart in the source
Mycobacterium avium [47] = conditions: isolate MAV3; remark: listed apart in the source
Mycobacterium avium [48] = conditions: 104 mc'2 4; remark: listed apart in the source
Mycobacterium avium [49] = conditions: isolate MAV1; remark: listed apart in the source
Description: Inhibition of multidrug resistance efflux pump in Mycobacterium avium isolate MAV1 assessed as potentiation of ciprofloxacin-induced antibacterial activity by measuring ciprofloxacin MIC at 1/2 MIC incubated for 3 days by MTT assay (Rvb = 2 ug/ml)

Mycobacterium avium [50] = conditions: isolate MAV4; remark: listed apart in the source
Mycobacterium avium [51] = conditions: isolate MAV1; remark: listed apart in the source
Mycobacterium avium [52] = conditions: 104; remark: listed apart in the source
Mycobacterium avium [53] = conditions: isolate MAV4; remark: listed apart in the source
Mycobacterium avium [54] = conditions: 104 mc'2 4; remark: listed apart in the source
[55] = tested on: Mycobacterium avium subsp. avium ATCC 25291; remark: listed apart in the source
Mycobacterium avium [56] = conditions: isolate MAV2; remark: listed apart in the source
Description: Inhibition of multidrug resistance efflux pump in Mycobacterium avium isolate MAV2 assessed as potentiation of clarithromycin -induced antibacterial activity by measuring clarithromycin MIC at 1/4 MIC incubated for 3 days by MTT assay (Rvb = >1024 ug/ml)

Mycobacterium avium [57] = conditions: isolate MAV1; remark: listed apart in the source
Description: Inhibition of multidrug resistance efflux pump in Mycobacterium avium isolate MAV1 assessed as potentiation of ciprofloxacin-induced antibacterial activity by measuring ciprofloxacin MIC at 1/4 MIC incubated for 3 days by MTT assay

Mycobacterium avium [58] = conditions: 104; remark: listed apart in the source
Mycobacterium avium [59] = conditions: isolate MAV2; remark: listed apart in the source
Description: Inhibition of multidrug resistance efflux pump in Mycobacterium avium isolate MAV2 assessed as potentiation of ofloxacin-induced antibacterial activity by measuring ofloxacin MIC at 1/4 MIC incubated for 3 days by MTT assay

Mycobacterium avium [60] = conditions: 104 mc'2 3; remark: listed apart in the source
Mycobacterium avium [61] = conditions: 104; remark: listed apart in the source
Description: Inhibition of multidrug resistance efflux pump in Mycobacterium avium 104 assessed as potentiation of clarithromycin -induced antibacterial activity by measuring clarithromycin MIC at 1/4 MIC incubated for 3 days by MTT assay

Mycobacterium avium [62] = conditions: in vivo, 72 h; remark: listed apart in the source
Description: Antimycobacterial activity against Mycobacterium avium 104 mc'2 4 assessed as reduction in bacterial viability incubated for 3 days by MTT assay

Mycobacterium avium [63] = conditions: isolate MAV2; remark: listed apart in the source
Mycobacterium avium [64] = conditions: isolate MAV4; remark: listed apart in the source
Mycobacterium avium [65] = conditions: 104 mc'2 3; remark: listed apart in the source
[66] = tested on: Mycobacterium avium subsp. avium ATCC 25291; remark: listed apart in the source
Mycobacterium avium [67] = conditions: 104 mc'2 3; remark: listed apart in the source
Mycobacterium avium [68] = conditions: isolate MAV1; remark: listed apart in the source

Molecule `CCCOc1ccc(-c2cn(CCN(CC)CC)c3ccccc3c2=O)cc1` has an MIC (Mycobacterium avium [1]) of 4 µg/mL (≈ 10.6 µM), an MIC (Mycobacterium avium [2]) of 256 µg/mL (≈ 676 µM) and an MIC (Mycobacterium avium [3]) of 1 µg/mL (≈ 2.64 µM). The selectivity ratio [4] was 2 to 4, the MIC (Mycobacterium avium [5]) was 256 µg/mL (≈ 676 µM) and the MIC [6] was 128 µg/mL (≈ 338 µM). The MIC (Mycobacterium avium [7]) was 12.5 µg/mL (≈ 33 µM), the MIC (Mycobacterium avium [8]) was 4 µg/mL (≈ 10.6 µM) and the MIC (Mycobacterium avium [9]) was 16 µg/mL (≈ 42.3 µM). The MIC (Mycobacterium avium [10]) was 4 µg/mL (≈ 10.6 µM), the MIC (Mycobacterium avium [11]) was 1 µg/mL (≈ 2.64 µM) and the MIC (Mycobacterium avium [12]) was over 512 µg/mL. It also gave an MIC [13] of 25 µg/mL (≈ 66 µM), an MIC (Mycobacterium avium [14]) of 16 µg/mL (≈ 42.3 µM) and an MIC (Mycobacterium avium [15]) of 0.5 µg/mL (≈ 1.32 µM). It also gave an MIC [16] of 25 µg/mL (≈ 66 µM), an MIC (Mycobacterium avium [17]) of 512 µg/mL (≈ 1350 µM) and an MIC (Mycobacterium avium [18]) of 2 µg/mL (≈ 5.28 µM). It also gave an MIC (Mycobacterium avium [19]) of 4 µg/mL (≈ 10.6 µM), an MIC (Mycobacterium avium [20]) of 32 µg/mL (≈ 84.5 µM) and an MIC (Mycobacterium avium [21]) of 512 µg/mL (≈ 1350 µM). It also gave a selectivity ratio [22] of 4 to 6, an MIC (Mycobacterium avium [23]) of 32 µg/mL (≈ 84.5 µM) and an MIC (Mycobacterium avium [24]) of 128 µg/mL (≈ 338 µM). The MIC (Mycobacterium avium [25]) was 8 µg/mL (≈ 21.1 µM), the MIC (Mycobacterium avium [26]) was 8 µg/mL (≈ 21.1 µM) and the MIC (Mycobacterium avium [27]) was 128 µg/mL (≈ 338 µM). For the same molecule, the MIC (Mycobacterium avium [28]) was 6.25 µg/mL (≈ 16.5 µM), the MIC [29] was 64 µg/mL (≈ 169 µM) and the MIC (Mycobacterium avium [30]) was 12.5 µg/mL (≈ 33 µM). The MIC (Mycobacterium avium [31]) was 2 µg/mL (≈ 5.28 µM), the MIC (Mycobacterium avium [32]) was 8 µg/mL (≈ 21.1 µM) and the MIC (Mycobacterium avium [33]) was 6.25 µg/mL (≈ 16.5 µM). The CC50 at 72 h ([34]; human monocyte-derived macrophages) was 56.9 µM, the MTC ([34]; macrophage cell line, 72 h) was 10 µM and the MIC (Mycobacterium avium [35]) was 4 µg/mL (≈ 10.6 µM). It also gave an MIC (Mycobacterium avium [36]) of 256 µg/mL (≈ 676 µM), an MIC (Mycobacterium avium [37]) of 0.5 µg/mL (≈ 1.32 µM) and an MIC (Mycobacterium avium [38]) of 2 µg/mL (≈ 5.28 µM). For the same molecule, the selectivity ratio [39] was 2 to 4, the MIC (Mycobacterium avium [40]) was 6.25 µg/mL (≈ 16.5 µM) and the MIC (Mycobacterium avium [41]) was 6.25 µg/mL (≈ 16.5 µM). For the same molecule, the MIC [42] was 128 µg/mL (≈ 338 µM), the MIC (Mycobacterium avium [43]) was 256 µg/mL (≈ 676 µM) and the MIC (Mycobacterium avium [44]) was under 2 µg/mL. The MIC (Mycobacterium avium [45]) was 128 µg/mL (≈ 338 µM), the MIC (Mycobacterium avium [46]) was 16 µg/mL (≈ 42.3 µM) and the MIC (Mycobacterium avium [47]) was 32 µg/mL (≈ 84.5 µM). For the same molecule, the MIC (Mycobacterium avium [48]) was 3.12 µg/mL (≈ 8.26 µM), the MIC (Mycobacterium avium [49]) was 2 µg/mL (≈ 5.28 µM) and the MIC (Mycobacterium avium [50]) was 8 µg/mL (≈ 21.1 µM). It also gave an MIC (Mycobacterium avium [51]) of 3.12 µg/mL (≈ 8.26 µM), an MIC (Mycobacterium avium [52]) of 16 µg/mL (≈ 42.3 µM) and an MIC (Mycobacterium avium [53]) of 64 µg/mL (≈ 169 µM). The MIC (Mycobacterium avium [54]) was 8 µg/mL (≈ 21.1 µM), the MIC [55] was 32 µg/mL (≈ 84.5 µM) and the MIC (Mycobacterium avium [56]) was 1020 µg/mL (≈ 2710 µM). It also gave an MIC (Mycobacterium avium [57]) of 2 µg/mL (≈ 5.28 µM), an MIC (Mycobacterium avium [58]) of 2 µg/mL (≈ 5.28 µM) and an MIC (Mycobacterium avium [59]) of 2 µg/mL (≈ 5.28 µM). For the same molecule, the MIC (Mycobacterium avium [60]) was 512 µg/mL (≈ 1350 µM), the MIC (Mycobacterium avium [61]) was 1 µg/mL (≈ 2.64 µM) and the MIC (Mycobacterium avium [62]) was 256 µg/mL (≈ 676 µM). For the same molecule, the MIC (Mycobacterium avium [63]) was 6.25 µg/mL (≈ 16.5 µM), the MIC (Mycobacterium avium [64]) was 2 µg/mL (≈ 5.28 µM) and the MIC (Mycobacterium avium [65]) was 512 µg/mL (≈ 1350 µM). For the same molecule, the MIC [66] was 16 µg/mL (≈ 42.3 µM), the MIC (Mycobacterium avium [67]) was 128 µg/mL (≈ 338 µM) and the MIC (Mycobacterium avium [68]) was 2 µg/mL (≈ 5.28 µM).
